Assay results reported in ChEMBL document CHEMBL1268898, “Metallocene catalyzed synthesis of fungistatic vicinal aminoalcohols under solvent free conditions” (2010).

Experiments:
Botrytis cinerea = experiment: Fungistatic activity against Botrytis cinerea assessed as inhibition of fungal growth at 100 mg/L relative to control; type: functional; conditions: read-out: GI
[1] = test system: Colletotrichum gloeosporioides; experiment: Fungistatic activity against Colletotrichum gloeosporioides assessed as inhibition of fungal growth at 100 mg/L relative to control; type: functional; conditions: read-out: GI

Cc1ccc(NC(CO)c2ccccc2)cc1 (stereo unspecified)
inhibition of growth at 100 µg/mL (Botrytis cinerea): 63%
inhibition of growth at 100 µg/mL [1]: 40%

O=[N+]([O-])c1ccc(NC(CO)c2ccccc2)cc1 (stereo unspecified)
inhibition of growth at 100 µg/mL (Botrytis cinerea): 69%
inhibition of growth at 100 µg/mL [1]: 55%

CN(C)S(=O)(=O)N(SC(F)(Cl)Cl)c1ccccc1 [DICHLOFLUANID]
inhibition of growth at 100 µg/mL (Botrytis cinerea): > 95%

Cc1ccc(NCC(O)COc2ccccc2)cc1 (stereo unspecified)
inhibition of growth at 100 µg/mL (Botrytis cinerea): 87%
inhibition of growth at 100 µg/mL [1]: 72%

Cc1ccc(N(CC(O)COc2ccccc2)CC(O)COc2ccccc2)cc1 (stereo unspecified)
inhibition of growth at 100 µg/mL (Botrytis cinerea): 53%
inhibition of growth at 100 µg/mL [1]: < 30%

Cc1ccc(NCC(C)(C)O)cc1
inhibition of growth at 100 µg/mL (Botrytis cinerea): 62%
inhibition of growth at 100 µg/mL [1]: < 30%
